Tests used:
IRAK4 = IRAK4 (Homo sapiens (Human), UniProt Q9NWZ3); assay: IRAK-4 AlphaScreen biochemical kinase assay; conditions: 1 nM IRAK4, 1 mM ATP, 3.5 h at RT
In short: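 AlphaScreen read-out: streptavidin beads bind the biotinylated peptide and protein A beads bind the anti-phosphothreonine antibody, so energy transfer reports phosphorylation of the peptide. The kinase is human IRAK-4.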

IL-6 in A549 cells = assay: Cell-based IL-6 ELISA assay in IL-1beta stimulated A549 cells; conditions: 2 ng/ml human IL-1beta overnight
Experimental: The cell-based assays is based on IL-6 ELISA quantification. Briefly, A549 cells are cultured in DMEM with 10% FBS medium. When cells reach 80% confluence they are trypsin treated and seeded 180 ul/well in 96-well plate at 2.5×10^4 cells/well. Then, 20 ul of compound serial dilutions (starting at 10 uM, 10 points) are added to the cell plate; incubate for 30 min at 37 C and stimulated with 2 ng/ml human IL-1beta 37 C, 5% CO2 overnight. The next day 100 ul of cell supernatant per well are analyzed on a Human IL-6 Quantikine ELISA kit from R&D Systems.

Chain of IRAK4 (Q9NWZ3 whole entry, species assumed): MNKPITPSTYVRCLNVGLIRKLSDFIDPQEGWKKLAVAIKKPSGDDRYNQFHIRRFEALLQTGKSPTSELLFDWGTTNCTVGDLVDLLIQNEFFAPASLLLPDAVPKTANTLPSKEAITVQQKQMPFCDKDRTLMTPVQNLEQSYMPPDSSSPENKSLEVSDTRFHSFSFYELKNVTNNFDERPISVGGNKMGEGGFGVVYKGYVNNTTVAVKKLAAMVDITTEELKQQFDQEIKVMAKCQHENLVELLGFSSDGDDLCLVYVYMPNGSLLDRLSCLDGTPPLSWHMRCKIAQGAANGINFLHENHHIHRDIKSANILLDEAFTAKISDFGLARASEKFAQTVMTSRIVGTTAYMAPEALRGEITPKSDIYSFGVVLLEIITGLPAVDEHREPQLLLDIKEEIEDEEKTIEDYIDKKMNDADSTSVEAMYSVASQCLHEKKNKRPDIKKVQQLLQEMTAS

| Compound | IC50 (IRAK4) [nM] | EC50 (IL-6 in A549 cells) [nM] |
| --- | --- | --- |
| C[C@H](N)c1cccc(-c2cc(-n3ccc(C(F)(F)F)n3)c3cnn(-c4cccc(CO)n4)c3c2)n1 [Example 356, (S)-(6-(6-(6-(1-aminoethyl)pyridin-2-yl)-4-(3-(trifluoromethyl)-1H-pyrazol-1-yl)-1H-indazol-1-yl)pyridin-2-yl)methanol] | < 100 | 1000 to 10000 |
| C[C@H](N)c1cccc(-c2cc(-c3ccn(C)n3)c3cnn(-c4cccc(CO)n4)c3c2)n1 [Example 357, (S)-(6-(6-(6-(1-aminoethyl)pyridin-2-yl)-4-(1-methyl-1H-pyrazol-3-yl)-1H-indazol-1-yl)pyridin-2-yl)methanol] | < 100 | ≤ 1000 |
| C[C@H](N)c1cccc(-c2cc(-c3ncco3)c3cnn(-c4cccc(CO)n4)c3c2)n1 [Example 359, (S)-(6-(6-(6-(1-aminoethyl)pyridin-2-yl)-4-(oxazol-2-yl)-1H-indazol-1-yl)pyridin-2-yl)methanol] | < 100 | ≤ 1000 |
| CC[C@H](N)c1cccc(-c2cc(-c3ccn(C)n3)c3cnn(-c4cccc(CO)n4)c3c2)n1 [Example 360, (S)-(6-(6-(6-(1-aminopropyl)pyridin-2-yl)-4-(1-methyl-1H-pyrazol-3-yl)-1H-indazol-1-yl)pyridin-2-yl)methanol] | < 100 | ≤ 1000 |
| CCC[C@H](N)c1cccc(-c2cc(-c3ccn(C)n3)c3cnn(-c4cccc(CO)n4)c3c2)n1 [Example 361] | < 100 | ≤ 1000 |
| Cc1nnc(-c2cc(-c3cccc([C@H](C)N)n3)cc3c2cnn3-c2cccc(CO)n2)s1 [Example 362, (S)-(6-(6-(6-(1-aminoethyl)pyridin-2-yl)-4-(5-methyl-1,3,4-thiadiazol-2-yl)-1H-indazol-1-yl)pyridin-2-yl)methanol] | < 100 | ≤ 1000 |
| C[C@H](N)c1cccc(-c2cc(-c3cn(C)cn3)c3cnn(-c4cccc(CO)n4)c3c2)n1 [Example 363, (S)-(6-(6-(6-(1-aminoethyl)pyridin-2-yl)-4-(1-methyl-1H-imidazol-4-yl)-1H-indazol-1-yl)pyridin-2-yl)methanol] | < 100 | ≤ 1000 |
| C[C@H](N)c1cccc(-c2cc(-c3ncccn3)c3cnn(-c4cccc(CO)n4)c3c2)n1 [Example 364, (S)-(6-(6-(6-(1-aminoethyl)pyridin-2-yl)-4-(pyrimidin-2-yl)-1H-indazol-1-yl)pyridin-2-yl)methanol] | < 100 | ≤ 1000 |
| Cc1cc(-c2cc(-c3cccc([C@H](C)N)n3)cc3c2cnn3-c2cccc(CO)n2)nn1C [Example 365, (S)-(6-(6-(6-(1-aminoethyl)pyridin-2-yl)-4-(1,5-dimethyl-1H-pyrazol-3-yl)-1H-indazol-1-yl)pyridin-2-yl)methanol] | < 100 | ≤ 1000 |
| Cc1cc(-c2cc(-c3cccc([C@H](C)N)n3)cc3c2cnn3-c2cccc(CO)n2)n[nH]1 [Example 366, (S)-(6-(6-(6-(1-aminoethyl)pyridin-2-yl)-4-(5-methyl-1H-pyrazol-3-yl)-1H-indazol-1-yl)pyridin-2-yl)methanol] | < 100 | ≤ 1000 |
| C[C@H](N)c1cccc(-c2cc(-c3cnn(C)c3)c3cnn(-c4cccc(CO)n4)c3c2)n1 [Example 367, (S)-(6-(6-(6-(1-aminoethyl)pyridin-2-yl)-4-(1-methyl-1H-pyrazol-4-yl)-1H-indazol-1-yl)pyridin-2-yl)methanol] | < 100 | ≤ 1000 |
| Cc1nc(-c2cc(-c3cccc([C@H](C)N)n3)cc3c2cnn3-c2cccc(CO)n2)cs1 [Example 368, (S)-(6-(6-(6-(1-aminoethyl)pyridin-2-yl)-4-(2-methylthiazol-4-yl)-1H-indazol-1-yl)pyridin-2-yl)methanol] | < 100 | ≤ 1000 |
| C[C@H](N)c1cccc(-c2cc(-c3nc(C#N)cs3)c3cnn(-c4cccc(CO)n4)c3c2)n1 [Example 369, (S)-2-(6-(6-(1-aminoethyl)pyridin-2-yl)-1-(6-(hydroxymethyl)pyridin-2-yl)-1H-indazol-4-yl)thiazol-4-carbonitrile] | < 100 | ≤ 1000 |
| C[C@H](N)c1cccc(-c2cc(-c3ccsn3)c3cnn(-c4cccc(CO)n4)c3c2)n1 [Example 370, (S)-(6-(6-(6-(1-aminoethyl)pyridi9n-2-yl)-4-(isothiazol-3-yl)-1H-indazol-1-yl)pyridin-2-yl)methanol] | < 100 | ≤ 1000 |
| C[C@H](N)c1cccc(-c2cc(-c3ccccc3)c3cnn(-c4cccc(CO)n4)c3c2)n1 [Example 371, (S)-(6-(6-(6-(1-aminoethyl)pyridin-2-yl)-4-phenyl-1H-indazol-1-yl)pyridin-2-yl)methanol] | < 100 | ≤ 1000 |
| Cc1cnc(-c2cc(-c3cccc([C@H](C)N)n3)cc3c2cnn3-c2cccc(CO)n2)s1 [Example 372, (S)-(6-(6-(6-(1-aminoethyl)pyridin-2-yl)-4-(5-methylthiazol-2-yl)-1H-indazol-1-yl)pyridin-2-yl)methanol] | < 100 | ≤ 1000 |

| Compound | IC50 (IRAK4) [nM] | EC50 (IL-6 in A549 cells) [nM] |
| --- | --- | --- |
| C[C@H](N)c1cccc(-c2cc(-c3ccccn3)c3cnn(-c4cccc(CO)n4)c3c2)n1 [Example 373, (S)-(6-(6-(6-(1-aminoethyl)pyridin-2-yl)-4-(pyridin-2-yl)-1H-indazol-1-yl)pyridin-2-yl)methanol] | < 100 | ≤ 1000 |
| C[C@H](N)c1cccc(-c2cc(-c3nc(C(F)(F)F)co3)c3cnn(-c4cccc(CO)n4)c3c2)n1 [Example 374, (S)-(6-(6-(6-(1-aminoethyl)pyridin-2-yl)-4-(4-(trifluoromethyl)oxazol-2-yl)-1H-indazol-1-yl)pyridin-2-yl)methanol] | < 100 | ≤ 1000 |
| Cc1csc(-c2cc(-c3cccc([C@H](C)N)n3)cc3c2cnn3-c2cccc(CO)n2)n1 [Example 375, (S)-(6-(6-(6-(1-aminoethyl)pyridin-2-yl)-4-(4-methylthiazol-2-yl)-1H-indazol-1-yl)pyridin-2-yl)methanol] | < 100 | ≤ 1000 |
| C[C@H](N)c1cccc(-c2cc(-c3cnn(C(F)(F)F)c3)c3cnn(-c4cccc(CO)n4)c3c2)n1 [Example 376, (S)-(6-(6-(6-(1-aminoethyl)pyridin-2-yl)-4-(1-(trifluoromethyl)-1H-pyrazol-4-yl)-1H-indazol-1-yl)pyridin-2-yl)methanol] | < 100 | ≤ 1000 |
| Cc1nc(-c2cc(-c3cccc([C@H](C)N)n3)cc3c2cnn3-c2cccc(CO)n2)sc1C [Example 377, (S)-(6-(6-(6-(1-aminoethyl)pyridin-2-yl)-4-(4,5-dimethylthiazol-2-yl)-1H-indazol-1-yl)pyridin-2-yl)methanol] | < 100 | ≤ 1000 |
| C[C@H](N)c1cccc(-c2cc(-c3nc(C(F)(F)F)cs3)c3cnn(-c4cccc(CO)n4)c3c2)n1 [Example 378, (S)-(6-(6-(6-(1-aminoethyl)pyridin-2-yl)-4-(4-(trifluoromethyl)thiazol-2-yl)-1H-indazol-1-yl)pyridin-2-yl)methanol] | < 100 | 1000 to 10000 |
| C[C@H](N)c1cccc(-c2cc(-c3nccs3)c3cnn(-c4cccc(CO)n4)c3c2)n1 [Example 379, (S)-(6-(6-(6-(1-aminoethyl)pyridin-2-yl)-4-(thiazol-2-yl)-1H-indazol-1-yl)pyridin-2-yl)methanol] | < 100 | 1000 to 10000 |
| C[C@H](N)c1cccc(-c2cc(-c3ncc(C(F)(F)F)s3)c3cnn(-c4cccc(CO)n4)c3c2)n1 [Example 380, (S)-(6-(6-(6-(1-aminoethyl)pyridin-2-yl)-4-(5-(trifluoromethyl)thiazol-2-yl)-1H-indazol-1-yl)pyridin-2-yl)methanol] | < 100 | 1000 to 10000 |
| C[C@H](N)c1cccc(-c2cc(-c3cc[nH]n3)c3cnn(-c4cccc(CO)n4)c3c2)n1 [Example 381, (S)-(6-(6-(6-(1-aminoethyl)pyridin-2-yl)-4-(1H-pyrazol-3-yl)-1H-indazol-1-yl)pyridin-2-yl)methanol] | < 100 | 1000 to 10000 |
| C[C@H](N)c1cccc(-c2ccc3cnn(-c4cncc(CO)n4)c3c2)n1 [Example 397, (S)-(6-(6-(6-(1-aminoethyl)pyridin-2-yl)-1H-indazol-1-yl)pyrazin-2-yl)methanol] | 100 to 1000 | ≤ 1000 |
| CC[C@H](N)c1cccc(-c2ccc3cnn(-c4cncc(CO)n4)c3c2)n1 [Example 398, (S)-(6-(6-(6-(1-aminopropyl)pyridin-2-yl)-1H-indazol-1-yl)pyrazin-2-yl)methanol] | < 100 | ≤ 1000 |
| CCC[C@H](N)c1cccc(-c2ccc3cnn(-c4cncc(CO)n4)c3c2)n1 [Example 399, (S)-(6-(6-(6-(1-aminobutyl)pyridin-2-yl)-1H-indazol-1-yl)pyrazin-2-yl)methanol] | < 100 | ≤ 1000 |
| C[C@H](N)c1ccnc(-c2ccc3cnn(-c4cccc(CO)n4)c3c2)n1 [Example 411, (S)-(6-(6-(4-(1-aminoethyl)pyrimidin-2-yl)-1H-indazol-1-yl)pyridin-2-yl)methanol] | < 100 | ≤ 1000 |
| CCC[C@H](N)c1ccnc(-c2ccc3cnn(-c4cccc(CO)n4)c3c2)n1 [Example 413, (S)-(6-(6-(4-(1-aminobutyl)pyrimidin-2-yl)-1H-indazol-1-yl)pyridin-2-yl)methanol] | < 100 | ≤ 1000 |
| CCC[C@@H](N)c1ccnc(-c2ccc3cnn(-c4cccc(CO)n4)c3c2)n1 [Example 414, (R)-(6-(6-(4-(1-aminobutyl)pyrimidin-2-yl)-1H-indazol-1-yl)pyridin-2-yl)methanol] | < 100 | ≤ 1000 |

Reference: patent publication US10246456B2, “IRAK4 inhibiting agents” (BIOGEN MA INC., priority 2014, dated 2019)
